Experimental data published in patent US20250049926A1, “PHARMACEUTICAL COMPOSITIONS COMPRISING MODIFIED BETACYCLODEXTRINS” (priority 2021, published 2025).

Assay: Solubility measurement of saturated solutions by HPLC at room temperature (0 h and 24 h)
Type: physicochemical
Details: for solubility at 0 h / solubility at 24 h: thermodynamic from solid
Procedure: The vial contents are prepared starting with 2.5 mg of the compound of formula (I). The primary excipient is added followed by any further excipient and then the buffered water to a total volume of 500 μL. All components are mixed in a vortex mixer for ca. 5 minutes. If everything is dissolved an additional 2.5 mg of the compound of formula (I) is added and vortexed again for ca. 5 minutes. This is repeated until a saturated solution (suspension) is obtained.
The solubility in vial 1 is measured immediately as described below.
To measure solubility 400 μl of the suspension are taken and placed in a centrifugation device above a 0.2 μm filter. Centrifugation is performed at 14,000 rpm for 10 minutes and if necessary repeated for additional 10 minutes. The filter is removed from the vial and 100 μL is taken and diluted with 400 μL high-performance liquid chromatography (HPLC) diluent solution (see below) or diluted with 900 μL HPLC diluent solution in the event 5 mg or more of the compound of formula (I) was used. The pH of the solution is measured. A further 100 μL of the vial solution is taken and diluted with 400 μL of HPLC diluent solution or diluted with 900 μL HPLC diluent solution in the event 5 mg or more of the compound of formula (I) was used. The assay of the solution versus control stock solution is measured by HPLC and the solubility is calculated as described below. The HPLC diluent solution is 0.1% trifluoroacetic acid (TFA) in acetonitrile (ACN) and water (1:1 v/v).
All solubility tests are performed at room temperature.
The HPLC method for assessing solubility is performed as follows:
The solubility of the compound of formula (I) is calculated according to the following formula:
[formula] • Solubility=solubility of compound of formula (I) (mg/mL) • A=peak area of the compound of the sample tested • a=value of constant “a” in Linear regression equation y=ax+b • b=value of constant “b” in Linear regression equation y=ax+b • n=dilution time • Formulations for stability assessment are prepared as follows: […]

[1] = buffered water with excipients, pH 2, aqueous with cosolvent or surfactant or cyclodextrin, CBS 30 mM pH 2.0, NaCl 3 mg/mL, SBE-beta-CD 40 mg/mL, pH exp 2.2

COc1cc(N2CCNCC2)ccc1Nc1ncc2c(n1)-n1ccc(C(=O)Nc3c(C)cccc3C)c1CC2 [compound of formula (I)]
effect of additional excipient on solubility with SBE-beta-CD (Kollidon 12 PF, Kolliphor P188, soybean lecithin): very small impact on solubility
effect of additional excipient on solubility with SBE-beta-CD (PEG 400, glycerol, propylene glycol and PEG 4000): do not increase the solubility
effect of additional excipient on solubility with SBE-beta-CD (addition of Tween 80): slightly improves solubility
effect of additional excipient on solubility with SBE-beta-CD (addition of carboxymethylcellulose sodium, solution sticky at 24 hours): decreases solubility
solubility at 0 h (buffered water with excipient (saturated solution), pH 4, aqueous buffer, CBS 30 mM pH 4.0, Ethanol 20 mg/mL, pH exp 4.1): 160 µg/mL
solubility at 24 h (buffered water with excipient (saturated solution), pH 4, aqueous buffer, CBS 30 mM pH 4.0, Ethanol 20 mg/mL, pH exp 4.2): 110 µg/mL
solubility at 0 h (buffered water with excipient (saturated solution), pH 4, aqueous buffer, CBS 30 mM pH 4.0, PEG 400 20 mg/mL, pH exp 4.1): 220 µg/mL
solubility at 24 h (buffered water with excipient (saturated solution), pH 4, aqueous buffer, CBS 30 mM pH 4.0, PEG 400 20 mg/mL, pH exp 4.3): 150 µg/mL
solubility at 0 h (buffered water with excipient (saturated solution), pH 4, aqueous with cosolvent or surfactant or cyclodextrin, CBS 30 mM pH 4.0, NaCl 3 mg/mL, HP-beta-CD 40 mg/mL, pH exp 4.10): 1670 µg/mL
solubility at 24 h (buffered water with excipient (saturated solution), pH 4, aqueous with cosolvent or surfactant or cyclodextrin, CBS 30 mM pH 4.0, NaCl 3 mg/mL, HP-beta-CD 40 mg/mL, pH exp 4.28): 980 µg/mL
solubility at 0 h (buffered water with excipient (saturated solution), pH 4, aqueous with cosolvent or surfactant or cyclodextrin, CBS 30 mM pH 4.0, NaCl 3 mg/mL, SBE-beta-CD 10 mg/mL, pH exp 4.1): 890 µg/mL
solubility at 24 h (buffered water with excipient (saturated solution), pH 4, aqueous with cosolvent or surfactant or cyclodextrin, CBS 30 mM pH 4.0, NaCl 3 mg/mL, SBE-beta-CD 10 mg/mL, pH exp 4.2): 1110 µg/mL
solubility at 0 h (buffered water with excipient (saturated solution), pH 4, aqueous with cosolvent or surfactant or cyclodextrin, CBS 30 mM pH 4.0, NaCl 3 mg/mL, SBE-beta-CD 25 mg/mL, pH exp 4.1): 1840 µg/mL
solubility at 24 h (buffered water with excipient (saturated solution), pH 4, aqueous with cosolvent or surfactant or cyclodextrin, CBS 30 mM pH 4.0, NaCl 3 mg/mL, SBE-beta-CD 25 mg/mL, pH exp 4.2): 2540 µg/mL
solubility at 0 h (buffered water with excipient (saturated solution), pH 4, aqueous with cosolvent or surfactant or cyclodextrin, CBS 30 mM pH 4.0, NaCl 3 mg/mL, SBE-beta-CD 40 mg/mL, pH exp 4.0): 2480 µg/mL
solubility at 24 h (buffered water with excipient (saturated solution), pH 4, aqueous with cosolvent or surfactant or cyclodextrin, CBS 30 mM pH 4.0, NaCl 3 mg/mL, SBE-beta-CD 40 mg/mL, pH exp 4.2): 3800 µg/mL
solubility at 0 h (buffered water with excipient (saturated solution), pH 4, aqueous with cosolvent or surfactant or cyclodextrin, CBS 30 mM pH 4.0, Ethanol 50 mg/mL, pH exp 4.2): 190 µg/mL
solubility at 24 h (buffered water with excipient (saturated solution), pH 4, aqueous with cosolvent or surfactant or cyclodextrin, CBS 30 mM pH 4.0, Ethanol 50 mg/mL, pH exp 4.3): 90 µg/mL
solubility at 0 h (buffered water with excipient (saturated solution), pH 4, aqueous with cosolvent or surfactant or cyclodextrin, CBS 30 mM pH 4.0, Ethanol 100 mg/mL, pH exp 4.2): 260 µg/mL
solubility at 24 h (buffered water with excipient (saturated solution), pH 4, aqueous with cosolvent or surfactant or cyclodextrin, CBS 30 mM pH 4.0, Ethanol 100 mg/mL, pH exp 4.4): 140 µg/mL
solubility at 0 h (buffered water with excipient (saturated solution), pH 4, aqueous with cosolvent or surfactant or cyclodextrin, CBS 30 mM pH 4.0, Glycerol 50 mg/mL, pH exp 4.1): 180 µg/mL
solubility at 24 h (buffered water with excipient (saturated solution), pH 4, aqueous with cosolvent or surfactant or cyclodextrin, CBS 30 mM pH 4.0, Glycerol 50 mg/mL, pH exp 4.3): 120 µg/mL
solubility at 0 h (buffered water with excipient (saturated solution), pH 4, aqueous with cosolvent or surfactant or cyclodextrin, CBS 30 mM pH 4.0, Glycerol 100 mg/mL, pH exp 4.1): 210 µg/mL
solubility at 24 h (buffered water with excipient (saturated solution), pH 4, aqueous with cosolvent or surfactant or cyclodextrin, CBS 30 mM pH 4.0, Glycerol 100 mg/mL, pH exp 4.3): 130 µg/mL
solubility at 0 h (buffered water with excipient (saturated solution), pH 4, aqueous with cosolvent or surfactant or cyclodextrin, CBS 30 mM pH 4.0, Glycerol 500 mg/mL, pH exp 4.6): 1060 µg/mL
solubility at 24 h (buffered water with excipient (saturated solution), pH 4, aqueous with cosolvent or surfactant or cyclodextrin, CBS 30 mM pH 4.0, Glycerol 500 mg/mL, pH exp 4.8): 260 µg/mL
solubility at 0 h (buffered water with excipient (saturated solution), pH 4, aqueous with cosolvent or surfactant or cyclodextrin, CBS 30 mM pH 4.0, PEG 100 mg/mL, pH exp 4.3): 600 µg/mL
solubility at 24 h (buffered water with excipient (saturated solution), pH 4, aqueous with cosolvent or surfactant or cyclodextrin, CBS 30 mM pH 4.0, PEG 100 mg/mL, pH exp 4.5): 400 µg/mL
solubility at 0 h (buffered water with excipient (saturated solution), pH 4, aqueous with cosolvent or surfactant or cyclodextrin, CBS 30 mM pH 4.0, PEG 400 50 mg/mL, pH exp 4.1): 340 µg/mL
solubility at 24 h (buffered water with excipient (saturated solution), pH 4, aqueous with cosolvent or surfactant or cyclodextrin, CBS 30 mM pH 4.0, PEG 400 50 mg/mL, pH exp 4.4): 230 µg/mL
solubility at 0 h (buffered water with excipient (saturated solution), pH 4, aqueous with cosolvent or surfactant or cyclodextrin, CBS 30 mM pH 4.0, PEG 400 500 mg/mL, pH exp 6.3): 4100 µg/mL
solubility at 24 h (buffered water with excipient (saturated solution), pH 4, aqueous with cosolvent or surfactant or cyclodextrin, CBS 30 mM pH 4.0, PEG 400 500 mg/mL, pH exp 6.4): ≥ 4550 µg/mL
solubility at 0 h (buffered water with excipient (saturated solution), pH 4, aqueous with cosolvent or surfactant or cyclodextrin, CBS 30 mM pH 4.0, PG 50 mg/mL, pH exp 4.1): 200 µg/mL
solubility at 24 h (buffered water with excipient (saturated solution), pH 4, aqueous with cosolvent or surfactant or cyclodextrin, CBS 30 mM pH 4.0, PG 50 mg/mL, pH exp 4.3): 110 µg/mL
solubility at 0 h (buffered water with excipient (saturated solution), pH 4, aqueous with cosolvent or surfactant or cyclodextrin, CBS 30 mM pH 4.0, PG 100 mg/mL, pH exp 4.1): 280 µg/mL
solubility at 24 h (buffered water with excipient (saturated solution), pH 4, aqueous with cosolvent or surfactant or cyclodextrin, CBS 30 mM pH 4.0, PG 100 mg/mL, pH exp 4.4): 150 µg/mL
solubility at 0 h (buffered water with excipient (saturated solution), pH 4, aqueous with cosolvent or surfactant or cyclodextrin, CBS 30 mM pH 4.0, PG 500 mg/mL, pH exp 5.4): 3740 µg/mL
solubility at 24 h (buffered water with excipient (saturated solution), pH 4, aqueous with cosolvent or surfactant or cyclodextrin, CBS 30 mM pH 4.0, PG 500 mg/mL, pH exp 5.3): 2200 µg/mL
solubility at 0 h (buffered water with excipient (saturated solution), pH 5, aqueous with cosolvent or surfactant or cyclodextrin, CBS 30 mM pH 5.0, NaCl 3 mg/mL, SBE-beta-CD 40 mg/mL, pH exp 5.0): 2240 µg/mL
solubility at 24 h (buffered water with excipient (saturated solution), pH 5, aqueous with cosolvent or surfactant or cyclodextrin, CBS 30 mM pH 5.0, NaCl 3 mg/mL, SBE-beta-CD 40 mg/mL, pH exp 5.3): 3520 µg/mL
solubility at 0 h (buffered water with excipient (saturated solution), pH 5.5, aqueous with cosolvent or surfactant or cyclodextrin, CBS 30 mM pH 5.5, NaCl 3 mg/mL, SBE-beta-CD 40 mg/mL, pH exp 5.5): 1630 µg/mL
solubility at 0 h [1]: 6590 µg/mL
solubility at 24 h [1]: 5470 µg/mL
solubility at 0 h (buffered water with excipients, pH 4, aqueous with cosolvent or surfactant or cyclodextrin, ABS (acetate) 30 mM pH 4.0, NaCl 3 mg/mL, SBE-beta-CD 40 mg/mL, pH exp 4.0): 2880 µg/mL
solubility at 24 h (buffered water with excipients, pH 4, aqueous with cosolvent or surfactant or cyclodextrin, ABS (acetate) 30 mM pH 4.0, NaCl 3 mg/mL, SBE-beta-CD 40 mg/mL, pH exp 4.6): 3720 µg/mL
solubility at 0 h (buffered water with excipients, pH 4, aqueous with cosolvent or surfactant or cyclodextrin, ASBS (aspartate) 30 mM pH 4.0, NaCl 3 mg/mL, SBE-beta-CD 40 mg/mL, pH exp 4.0): 2880 µg/mL
solubility at 24 h (buffered water with excipients, pH 4, aqueous with cosolvent or surfactant or cyclodextrin, ASBS (aspartate) 30 mM pH 4.0, NaCl 3 mg/mL, SBE-beta-CD 40 mg/mL, pH exp 4.6): 3720 µg/mL
solubility at 0 h (buffered water with excipients, pH 4, aqueous with cosolvent or surfactant or cyclodextrin, CBS 30 mM pH 4.0, NaCl 3 mg/mL, SBE-beta-CD 40 mg/mL + Glycerol 1 mg/mL, pH exp 4.1): 2400 µg/mL
solubility at 24 h (buffered water with excipients, pH 4, aqueous with cosolvent or surfactant or cyclodextrin, CBS 30 mM pH 4.0, NaCl 3 mg/mL, SBE-beta-CD 40 mg/mL + Glycerol 1 mg/mL, pH exp 4.3): 3720 µg/mL
solubility at 0 h (buffered water with excipients, pH 4, aqueous with cosolvent or surfactant or cyclodextrin, CBS 30 mM pH 4.0, NaCl 3 mg/mL, SBE-beta-CD 40 mg/mL + Glycerol 5 mg/mL, pH exp 4.2): 2320 µg/mL
solubility at 24 h (buffered water with excipients, pH 4, aqueous with cosolvent or surfactant or cyclodextrin, CBS 30 mM pH 4.0, NaCl 3 mg/mL, SBE-beta-CD 40 mg/mL + Glycerol 5 mg/mL, pH exp 4.3): 3710 µg/mL
solubility at 0 h (buffered water with excipients, pH 4, aqueous with cosolvent or surfactant or cyclodextrin, CBS 30 mM pH 4.0, NaCl 3 mg/mL, SBE-beta-CD 40 mg/mL + Glycerol 50 mg/mL, pH exp 4.1): 2330 µg/mL
solubility at 24 h (buffered water with excipients, pH 4, aqueous with cosolvent or surfactant or cyclodextrin, CBS 30 mM pH 4.0, NaCl 3 mg/mL, SBE-beta-CD 40 mg/mL + Glycerol 50 mg/mL, pH exp 4.2): 3570 µg/mL
solubility at 0 h (buffered water with excipients, pH 4, aqueous with cosolvent or surfactant or cyclodextrin, CBS 30 mM pH 4.0, NaCl 3 mg/mL, SBE-beta-CD 40 mg/mL + HPMC 5 mg/mL, pH exp 4.1): 2230 µg/mL
solubility at 24 h (buffered water with excipients, pH 4, aqueous with cosolvent or surfactant or cyclodextrin, CBS 30 mM pH 4.0, NaCl 3 mg/mL, SBE-beta-CD 40 mg/mL + HPMC 5 mg/mL, pH exp 4.3): 3530 µg/mL
